Laboratory results as given in ChEMBL document CHEMBL1201862, “PubChem BioAssay data set” (2004).
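Exposure lasted 48 hours, with cells grown in 96-well plates and compounds tested at five concentrations. The concentration for 50% growth inhibition is given as GI50.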 Calls of active or inactive are those of the source. Cut-off read from the data, not from the text of the source: active = GI50 up to about 1.1 µM and inactive = higher.

Assays:
Test in all cases: growth of human tumour cells (NCI), 48 h
K562 = test system: K562
MCF7 = test system: MCF7
RPMI-8226 = test system: RPMI-8226
T47D = test system: T47D
MOLT-4 = test system: MOLT-4
LOX IMVI = test system: LOX IMVI
OVCAR-3 = test system: OVCAR-3
MDA-MB-435 = test system: MDA-MB-435
CCRF-CEM = test system: CCRF-CEM
DU-145 = test system: DU-145
SK-OV-3 = test system: SK-OV-3
IGROV-1 = test system: IGROV-1
HL-60 = test system: HL-60
SNB-19 = test system: SNB-19
TK-10 = test system: TK-10
M14 = test system: M14
ACHN = test system: ACHN
NCI-H226 = test system: NCI-H226
HOP-62 = test system: HOP-62
SK-MEL-2 = test system: SK-MEL-2

Measured: GI50

CC12NC(=C(C#N)C#N)C(C#N)=C3NC(N)=C(C#N)C(=C31)Oc1ccccc12 (stereo not given)
inactive: K562 > 43.2 µM | MCF7 > 35.6 µM | RPMI-8226 > 32.7 µM | T47D > 79.1 µM | MOLT-4 15.2 µM | LOX IMVI 5.83 µM | OVCAR-3 4.2 µM | MDA-MB-435 > 30.1 µM | CCRF-CEM > 29 µM | DU-145 10.1 µM | SK-OV-3 75 µM | IGROV-1 4.01 µM | HL-60 5.74 µM | SNB-19 > 40.7 µM | TK-10 > 31 µM | M14 > 44.4 µM | ACHN > 25 µM | NCI-H226 43.6 µM | HOP-62 5.04 µM | SK-MEL-2 6.7 µM

C=C(C)c1cc(C(C)(C)C)cc(C(=C)C)c1S(C)(=O)=O
inactive: K562 > 100 µM | MCF7 > 100 µM | RPMI-8226 > 100 µM | T47D 10.7 µM | MOLT-4 > 100 µM | LOX IMVI > 100 µM | OVCAR-3 > 100 µM | MDA-MB-435 > 100 µM | CCRF-CEM > 100 µM | DU-145 > 100 µM | SK-OV-3 > 100 µM | IGROV-1 > 100 µM | HL-60 > 100 µM | SNB-19 > 100 µM | TK-10 > 100 µM | M14 > 100 µM | ACHN > 100 µM | NCI-H226 > 100 µM | HOP-62 > 100 µM | SK-MEL-2 > 100 µM

CC(C)OP(=O)(OC(C)C)C(C(C)C)N(C)/C(N)=N/C#N (stereo not given)
inactive: K562 > 100 µM | MCF7 > 100 µM | RPMI-8226 > 100 µM | T47D > 100 µM | MOLT-4 > 100 µM | LOX IMVI > 100 µM | OVCAR-3 > 100 µM | MDA-MB-435 > 100 µM | CCRF-CEM > 100 µM | DU-145 > 100 µM | SK-OV-3 > 100 µM | IGROV-1 > 100 µM | HL-60 > 100 µM | SNB-19 > 100 µM | TK-10 > 100 µM | M14 > 100 µM | ACHN > 100 µM | NCI-H226 > 100 µM | HOP-62 > 100 µM | SK-MEL-2 > 100 µM

COC(=O)c1cnc(Cl)cn1
inactive: K562 40.1 µM | MCF7 38.4 µM | RPMI-8226 21 µM | T47D 40.3 µM | MOLT-4 41.4 µM | LOX IMVI 33.4 µM | MDA-MB-435 48.4 µM | CCRF-CEM 35.9 µM | DU-145 > 100 µM | SK-OV-3 > 100 µM | IGROV-1 29.4 µM | HL-60 32.7 µM | SNB-19 > 100 µM | TK-10 > 100 µM | M14 53.8 µM | ACHN 71 µM | NCI-H226 35.2 µM | HOP-62 > 100 µM | SK-MEL-2 48 µM

C=CCOc1ccc(N)c([N+](=O)[O-])c1
inactive: K562 > 100 µM | MCF7 > 100 µM | RPMI-8226 > 100 µM | T47D > 100 µM | MOLT-4 > 100 µM | LOX IMVI > 100 µM | MDA-MB-435 > 100 µM | CCRF-CEM > 100 µM | DU-145 > 100 µM | SK-OV-3 > 100 µM | IGROV-1 > 100 µM | HL-60 > 100 µM | SNB-19 > 100 µM | TK-10 > 100 µM | M14 > 100 µM | ACHN > 100 µM | NCI-H226 > 100 µM | HOP-62 > 100 µM | SK-MEL-2 > 100 µM

COc1ccc2oc(=N)c(C(=O)Nc3ccccn3)cc2c1
inactive: K562 > 100 µM | MCF7 35.1 µM | RPMI-8226 > 100 µM | T47D 37 µM | MOLT-4 > 100 µM | LOX IMVI > 100 µM | OVCAR-3 > 100 µM | MDA-MB-435 > 100 µM | CCRF-CEM > 100 µM | DU-145 > 100 µM | SK-OV-3 > 100 µM | IGROV-1 53.6 µM | HL-60 > 100 µM | SNB-19 87.1 µM | M14 > 100 µM | ACHN 76 µM | NCI-H226 60.3 µM | HOP-62 > 100 µM | SK-MEL-2 23.2 µM

NCCCCN(CCCN)C(=O)c1ccccc1
inactive: K562 > 100 µM | MCF7 > 100 µM | RPMI-8226 > 100 µM | T47D > 100 µM | MOLT-4 > 100 µM | OVCAR-3 > 100 µM | MDA-MB-435 > 100 µM | CCRF-CEM > 100 µM | DU-145 > 100 µM | SK-OV-3 > 100 µM | IGROV-1 > 100 µM | HL-60 > 100 µM | SNB-19 > 100 µM | TK-10 > 100 µM | M14 > 100 µM | ACHN > 100 µM | NCI-H226 > 100 µM | HOP-62 > 100 µM | SK-MEL-2 > 100 µM

CN(C)Cc1cc(C(=O)O)cc(CN(C)C)c1O
inactive: K562 > 100 µM | MCF7 > 100 µM | RPMI-8226 > 100 µM | T47D > 100 µM | LOX IMVI > 100 µM | OVCAR-3 > 100 µM | MDA-MB-435 > 100 µM | CCRF-CEM > 100 µM | DU-145 > 100 µM | SK-OV-3 > 100 µM | IGROV-1 > 100 µM | HL-60 > 100 µM | SNB-19 > 100 µM | TK-10 > 100 µM | M14 > 100 µM | ACHN > 100 µM | NCI-H226 > 100 µM | HOP-62 > 100 µM | SK-MEL-2 > 100 µM
